Test results taken from US8129533B2, “Method for production of quinolone-containing lyophilized preparation” (Dalichi Sankyo Company, Limited, priority 2005, dated 2012).

What was measured:
[1] = Reconstitution time of lyophilized preparation (with vs without annealing step); type: physicochemical; details: for reconstitution time of lyophilized preparation: lyophilized preparation (20 mg/mL, pH-adjusting agent only) prepared with an annealing step vs without, water for injection 10 mL, moderate shaking, FIG. 8
From the text: After a drug solution had been prepared in a manner similar to that described above, the solution was charged into a container and frozen under the conditions shown in Table 2, and then was lyophilized in a manner similar to that described above, followed by measurement of the time required for reconstitution (hereinafter the time may be referred to as a “reconstitution time”). The state observed about 30 seconds after injection of a liquid for reconstitution is shown in FIG. 2 (method without annealing step) or FIG. 3 (method with an annealing step).
Lyophilization was performed under varied annealing conditions (e.g., temperature and maintenance time for an annealing step) as shown in Table 3. […] Reconstitution time was measured through the following procedure: after completion of lyophilization, water for injection was added to a vial in an amount equal to that of the liquid charged into the vial, followed by moderate shaking, and the time required for complete dissolution of the content of the vial was measured.
Water for injection (10 mL) was added to a vial, followed by moderate shaking, and the time required for complete dissolution of the content of the vial was measured.

[2] = test system: drug-resistant Gram-positive bacteria such as methicillin-resistant staphylococci, penicillin-resistant pneumococci, and vancomycin-resistant enterococci; details: cited from earlier work
[3] = DSC of frozen product of compound-containing aqueous solution (glass transition temperature); type: physicochemical; details: frozen product of Table 1 formulation
From the text: The temperature of the annealing step may be determined on the basis of the glass transition temperature of the frozen product of the compound (1)-containing aqueous solution obtained through the freezing step. Specifically, the temperature of the frozen product is elevated to a level equal to or higher than the glass transition temperature thereof, and then maintained for a predetermined period of time. The glass transition temperature of the frozen product may be determined through, for example, DSC of the frozen product, and this DSC may be performed according to a generally employed method. The glass transition temperature of frozen products is varied in accordance with, for example, the compositional proportions of ingredients of starting solutions for the products. Therefore, different frozen products are subjected to DSC for determination of the glass transition temperature thereof.
For example, in the DSC chart of the frozen product containing compound (I) and pH-adjusting agents having a formulation shown in Table 1, the peak corresponding to the glass transition temperature of the frozen product rises at about −14.0° C. (FIG. 5). […] Therefore, when the annealing step is performed at a temperature equal to or higher than this temperature, the annealing effect is expected to be attained.

drug-resistant bacteria = details: cited from earlier work

Row | SMILES | reconstitution time of lyophilized preparation [1] | also measured
1 | CC1COc2c(N3CCN(C)CC3)c(F)cc3c(=O)c(C(=O)O)cn1c23 (racemic) [ofloxacin, (±)-9-fluoro-2,3-dihydro-3-methyl-10-(4-methyl-1-piperazinyl)-7-oxo-7H-pyrido[1,2,3-de][1,4]benzoxazine-6-carboxylic acid] | reduced reconstitution time | 
2 | COc1c(N2CC[C@@H](C3(N)CC3)C2)ccc2c(=O)c(C(=O)O)cn([C@@H]3C[C@@H]3F)c12 [compound (I), 7-[3-(R)-(1-aminocyclopropyl)pyrrolidin-1-yl]-1-[2-(S)-fluoro-1-(R)-cyclopropyl]-1,4-dihydro-8-methoxy-4-oxoquinoline-3-carboxylic acid] |  | antibacterial activity [2]: high antibacterial activity; temperature at which the glass transition peak starts (DSC) [3]: about −17 °C; reconstituting property of lyophilized cake ([1]; Table 1 formulation, frozen product maintained between glass transition temperature and a temperature at which it does not thaw): improved reconstituting property
3 | COc1c(N2CC3(CC3)[C@](C)(N)C2)c(F)cc2c(=O)c(C(=O)O)cn([C@@H]3C[C@@H]3F)c12 [compound (II), (+)-7-[(7S)-7-amino-7-methyl-5-azaspiro[2.4]heptan-5-yl]-6-fluoro-1-[(1R,2S)-2-fluoro-1-cyclopropyl]-1,4-dihydro-8-methoxy-4-oxo-3-quinolinecarboxylic acid hemihydrate] | reduced reconstitution time | antibacterial activity (drug-resistant bacteria): excellent antibacterial activity
4 | C[C@H]1COc2c(N3CCN(C)CC3)c(F)cc3c(=O)c(C(=O)O)cn1c23 [levofloxacin, (−)-(S)-9-fluoro-2,3-dihydro-3-methyl-10-(4-methyl-1-piperazinyl)-7-oxo-7H-pyrido[1,2,3-de][1,4]benzoxazine-6-carboxylic acid hemihydrate] | reduced reconstitution time | 
5 | N[C@@H]1CN(c2c(F)cc3c(=O)c(C(=O)O)cn([C@@H]4C[C@@H]4F)c3c2Cl)CC12CC2 [sitafloxacin, (−)-7-[(7S)-7-amino-5-azaspiro[2.4]heptan-5-yl]-8-chloro-6-fluoro-1-[(1R,2S)-2-fluoro-1-cyclopropyl]-1,4-dihydro-4-oxo-3-quinolinecarboxylic acid sesquihydrate] | reduced reconstitution time | 
